The source of these data is publication PMC10096180, “Half-Sandwich Type Platinum-Group Metal Complexes of C-Glucosaminyl Azines: Synthesis and Antineoplastic and Antimicrobial Activities” (Molecules, 2023).

One assay has as its system A2780 cells. Nature of the assay: SRB binding assay, cytostasis, 48 h treatment. Format: cell-based. The gist of the method:
(§1)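 Ovarian cancer A2780 cells and primary human dermal fibroblasts treated 48 h, TCA-fixed, SRB-stained, absorbance at 540 nm relative to vehicle. IC50 from four-parameter fit when a plateau was reached or inhibition exceeded 90%; otherwise percent inhibition at 100 μM.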

Assay [1] deals with primary human dermal fibroblasts. Briefly: SRB binding assay, cytostasis, 48 h treatment. The class given is cell-based. The conditions noted are these: read-out: Fibroblast SRB IC50. A digest of the protocol: as §1
On the technique in general: The SRB assay estimates cell density from bound dye.

The term IC50 denotes the concentration at which inhibition is half-maximal.

For the molecule `Cc1ccc(C(C)C)cc1.F[P-](F)(F)(F)(F)F.N[C@@H]1[C@@H](OCc2ccccc2)[C@H](OCc2ccccc2)[C@@H](COCc2ccccc2)O[C@H]1c1ccccn1.[Cl][Ru+]` [Ru-3a], the IC50 was 1.86 µM in the assay with A2780 cells and 9.62 µM in assay [1]. Besides, in the assay on A2780 cells (up to 100 μM, ND = not detectable), the “A2780 SRB Max Inhibition” value is above 90%.
